System: Low-Grade Glioma (LGG)
Experiment: Phase I/II trial of single agent mirdametinib in patients with low-grade glioma
Format: in vivo, human
Experimental: Example 1: Phase I/II Evaluation of Single Agent Mirdametinib, a Brain-Penetrant MEK1/2 Inhibitor, for the Treatment of Children, Adolescents, and Young Adults With Low-Grade Glioma (LGG) A multi-arm phase I/II trial of mirdametinib is currently being conducted in patients ≥2 and <25 years with LGG. Phase I requires participants have no prior exposure to MEK inhibitors and recurrent/progressive disease with biopsy-proven evidence of MAPK pathway activation. Three escalating dose levels (2 mg/m^2/dose BID, 2.5 mg/m^2/dose BID and 3 mg/m^2/dose BID) are planned using a rolling 6 design. The median age enrolled in the study is 10 years (3-21 years old). 10 patients have somatic gene rearrangements (7 BRAF, 1 MYB, 1 RAF1, 1 FGFR1); 1 patient has a NF1 germline mutation; and 3 patients have metastatic disease. […] Of the 11 patients having a somatic gene rearrangement or NF1, 4 patients with BRAF and the 1 patient with FGFR1 received a dose of 2 mg/m^2 BID. The remainder of the 11 patients (3 BRAF, 1 MYB, 1 NF1, and 1 RAF1) received a dose of 2.5 mg/m^2 BID.

Compound: O=C(NOC[C@H](O)CO)c1ccc(F)c(F)c1Nc1ccc(I)cc1F (single isomer, unassigned) [mirdametinib]
- Minor Response (MR), patients (decrease by 25-50%) (2 mg/m^2 BID (N = 5)): 4 (80.0%)
- Partial Response (PR), patients (decrease in tumor size by 50-75%) (2 mg/m^2 BID (N = 5), patients with somatic gene rearrangement or NF1, as of cut-off date): 1 (20.0%)
- Minor Response (MR), patients (decrease by 25-50%) (2.5 mg/m^2 BID (N = 6)): 3 (50.0%)
- Stable Disease (SD), patients (stable tumor size or decrease up to 25%) (2.5 mg/m^2 BID (N = 6)): 3 (50.0%)
- Minor Response (MR), patients (decrease by 25-50%) (Total (N = 11)): 7 (63.6%)
- Stable Disease (SD), patients (stable tumor size or decrease up to 25%) (Total (N = 11)): 3 (27.3%)
- Partial Response (PR), patients (decrease in tumor size by 50-75%) (Total (N = 11), 2 and 2.5 mg/m^2 BID pooled): 1 (9.1%)
- dose-limiting toxicities (dose level 1 (2 mg/m^2)): No dose-limiting toxicities occurred
- tolerability (dosed continuously, recurrent/progressive pediatric LGG): well-tolerated
- patients with minor response (>25%-<50% decrease) (patients who completed at least one follow-up disease evaluation): Four of the six patients
- MEK related retinopathy or cardiopathy (phase I): No MEK related retinopathy or cardiopathy has been observed
- disease progressions (phase I): No disease progressions have occurred
- treatment-related adverse events, grade (phase I, dose levels 1 and 2): Only grade 1 and 2

— patent US20250268849A1, “TREATMENT OF LOW-GRADE GLIOMA WITH MIRDAMETINIB” (St. Jude Children’s Research Hospital, Inc., priority 2022, published 2025)
